According to ChEMBL document CHEMBL4266055, “Optimization of Phenyl Indole Inhibitors of the AAA+ ATPase p97” (ACS Med Chem Lett, 2018):
≈ marks a conversion by molar mass, not a printed value.

What was measured:
[1] = Half life in human liver microsomes at 10 uM in presence of NADPH/G6PD by LC-MS/MS analysis; format: ADME, microsome
[2] = Half life in mouse liver microsomes at 10 uM in presence of NADPH/G6PD by LC-MS/MS analysis; format: ADME, microsome
[3] = Aqueous solubility of the compound in pH 7.4 buffer by UV/Vis spectroscopic analysis; format: physicochemical
[4] = biological target: T1, Transitional endoplasmic reticulum ATPase (Homo sapiens, UniProt P55072)
Description: Inhibition of recombinant full length human p97 (1 to 806 residues) expressed in Escherichia coli Rosetta 2 (DE3) using 100 uM ATP as substrate after 90 mins by luminescence assay

[5] = biological target: T1, Transitional endoplasmic reticulum ATPase; test: Inhibition of recombinant full length human p97 (1 to 806 residues) expressed in Escherichia coli Rosetta 2 (DE3) using 20 uM ATP as substrate after 90 mins by luminescence assay
[6] = biological target: T1, Transitional endoplasmic reticulum ATPase; test: Inhibition of human p97 in human HeLa cells harboring UbG76V-GFP assessed as accumulation of UbG76V after 1 hr by microscopic analysis; format: cell-based
[7] = tested on: Panel NCI-60 (60 carcinoma cell lines); test: Growth inhibition of human NCI60 cells after 48 hrs by sulforhodamine B assay; format: functional
[8] = biological target: T1, Transitional endoplasmic reticulum ATPase; test: Inhibition of human p97 in human HeLa cells harboring UbG76V-GFP assessed as accumulation of UbG76V after 6 hrs by microscopic analysis; format: cell-based

T1 sequence (P55072 whole entry, the tested form may be a part): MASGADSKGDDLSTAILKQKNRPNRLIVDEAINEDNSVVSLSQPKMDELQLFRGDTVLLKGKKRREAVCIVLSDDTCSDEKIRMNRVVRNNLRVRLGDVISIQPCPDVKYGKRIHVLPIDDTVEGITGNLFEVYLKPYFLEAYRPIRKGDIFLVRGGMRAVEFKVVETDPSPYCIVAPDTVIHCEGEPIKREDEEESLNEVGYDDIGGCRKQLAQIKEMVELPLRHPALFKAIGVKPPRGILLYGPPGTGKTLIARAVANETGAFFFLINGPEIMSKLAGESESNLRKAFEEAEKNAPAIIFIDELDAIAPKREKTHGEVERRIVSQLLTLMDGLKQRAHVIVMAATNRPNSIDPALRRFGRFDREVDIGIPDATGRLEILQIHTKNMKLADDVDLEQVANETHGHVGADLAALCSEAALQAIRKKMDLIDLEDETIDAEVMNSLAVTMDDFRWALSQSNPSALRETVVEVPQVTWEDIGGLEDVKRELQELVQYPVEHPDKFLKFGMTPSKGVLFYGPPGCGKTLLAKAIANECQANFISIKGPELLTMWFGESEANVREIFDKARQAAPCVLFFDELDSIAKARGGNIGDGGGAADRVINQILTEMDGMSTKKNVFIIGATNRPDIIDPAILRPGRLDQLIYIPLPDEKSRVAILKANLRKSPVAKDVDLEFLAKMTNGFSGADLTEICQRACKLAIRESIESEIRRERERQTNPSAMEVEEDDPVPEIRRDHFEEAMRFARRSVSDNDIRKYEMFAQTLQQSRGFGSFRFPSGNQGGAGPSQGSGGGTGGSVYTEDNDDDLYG

Structure (SMILES)	IC50 [4] [nM]	other results
Cc1cc(OCc2nnc(SC3CCCC3)n2-c2cccnc2)ccc1-c1ccc(S(C)(=O)=O)cc1		t1/2 [1]: < 0.167 h; t1/2 [2]: < 0.167 h; solubility [3]: 86 µM (≈ 44.8 µg/mL)
CC(C)N1CCN(C(=O)CCNC2CCN(c3cccc(-c4cc5cc(F)ccc5[nH]4)c3)CC2)CC1	190	
Cn1ncnc1CCNC1CCN(c2cccc(-c3cc4ccccc4[nH]3)c2)CC1	990	IC50 [5]: 2400 nM
CC(C)N1CCN(C2(CNC3CCN(c4cccc(-c5cc6cc(F)ccc6[nH]5)c4)CC3)COC2)CC1	90	
CC(C)N1CCN(CCNC2CCN(c3cccc(-c4cc5cc(F)ccc5[nH]4)c3)CC2)CC1	70	
c1ccc(CCNC2CCN(c3cccc(-c4cc5ccccc5[nH]4)c3)CC2)nc1	1050	
CN1CCN(C2(CNC3CCN(c4cccc(-c5cc6cc(F)ccc6[nH]5)c4)CC3)CCC2)CC1	20	t1/2 [1]: 7.92 h; t1/2 [2]: 4.62 h; EC50 [6]: 15000 nM; GI50 [7]: 2000 nM; solubility [3]: 330 µM (≈ 157 µg/mL); EC50 [8]: > 40000 nM
c1ccc(CNC2CCN(c3cccc(-c4cc5ccccc5[nH]4)c3)CC2)nc1	1060	
CN1CCN(CCNC2CCN(c3cccc(-c4cc5ccccc5[nH]4)c3)CC2)CC1	280	
CN(C)CCNC1CCN(c2cccc(-c3cc4cc(F)ccc4[nH]3)c2)CC1	800	
c1ccc(CCNC2CCN(c3cccc(-c4cc5ccccc5[nH]4)c3)CC2)cc1	2610	
CC(C)(C)N1CCN(CCNC2CCN(c3cccc(-c4cc5ccccc5[nH]4)c3)CC2)CC1	210	
CC(C)N1CCC(NC2CCN(c3cccc(-c4cc5cc(F)ccc5[nH]4)c3)CC2)CC1	50	t1/2 [1]: 9.48 h; t1/2 [2]: 6.43 h; EC50 [6]: 19000 nM; GI50 [7]: 1580 nM; solubility [3]: 380 µM (≈ 165 µg/mL); EC50 [8]: > 40000 nM
CC(C)N1CCN(C2CCN(c3cccc(-c4cc5cc(F)ccc5[nH]4)c3)CC2)CC1	4760	
CC(C)N1CCN(CCCNC2CCN(c3cccc(-c4cc5ccccc5[nH]4)c3)CC2)CC1	380	
CC(C)N1CCN(C2(CNC3CCN(c4cccc(-c5cc6cc(F)ccc6[nH]5)c4)CC3)CCC2)CC1	100	
CCN1CCN(CCNC2CCN(c3cccc(-c4cc5ccccc5[nH]4)c3)CC2)CC1	200	
c1cc(-c2cc3ccccc3[nH]2)cc(N2CCC(NCCN3CCNCC3)CC2)c1	330	
